Data taken from patent US20100003246A1, “Novel heterocyclic compounds and uses therof” (priority 2008, published 2010).

Target: T1, b-Raf(V600E) (Homo sapiens, UniProt P15056, V600E)
T1 construct: made in house
Test: Raf/Mek Amplified Luminescence Proximity Homogeneous Assay (Alpha Screen), b-Raf(V600E)
Assay type: biochemical
Settings: mutant b-Raf(V600E), read-out: mut-b-RAF (IC50 in uM)
Description: Assay buffer: 50 mM Tris, pH 7.5, 15 mM MgCl2, 0.01% BSA, 1 mM DTT Stop buffer: 60 mM EDTA, 0.01% Tween20 Bead buffer: 50 mM Tris, pH 7.5, 0.01% Tween20
b-Raf(V600E), active: Recombinant in-house material biotinylated Mek, kinase dead: Recombinant in-house material Alpha Screen detection kit PerkinElmer, #6760617R Anti phospho-MEK½ Cell signaling #9121 384 well assay plates: White Greiner plates, #781207
b-Raf(V600E) approximately 4 pM c-Raf approximately 4 nM biotinylated Mek, Kinase dead approximately 10 nM
Pre-incubation time with compounds 60 min at room temperature Reaction time 1 or 3 hours at room temperature
Raf and biotinylated Mek, kinase dead, were combined at 2× final concentrations in assay buffer (50 mM Tris, pH 7.5, 15 mM MgCl2, 0.01% BSA and 1 mM DTT) and dispensed 10 μl per well in assay plates (Greiner white 384 well assay plates #781207) containing 0.5 μl of 40× of a raf kinase inhibitor test compound diluted in 100% DMSO. The plate was incubated for 60 min at room temperature.
The Raf kinase activity reaction was started by the addition of 10 μl per well of 2×ATP diluted in assay buffer. After 3 hours (bRaf(V600E)) or 1 hour (c-Raf), the reactions were stopped with the addition of 10 μl of stop reagent (60 mM EDTA). Phosphorylated product was measured using a rabbit anti-p-MEK (Cell Signaling, #9121) antibody and the Alpha Screen IgG (Protein A) detection Kit (PerkinElmer #6760617R), by the addition of 30 μL to the well of a mixture of the antibody (1:2000 dilution) and detection beads (1:2000 dilution of both beads) in bead buffer (50 mM Tris, pH 7.5, 0.01% Tween20). The additions were carried out under dark conditions to protect the detection beads from light. A lid was placed on top of the plate and incubated for 1 hour at room temperature, then the luminescence was read on a PerkinElmer Envision instrument. The concentration of each compound for 50% inhibition (IC50) was calculated by non-linear regression using XL Fit data analysis software.
The Raf/Mek Amplified Luminescence Proximity Homogeneous Assay described was used to generate the luminescence and mutant b-Raf(V600E) IC50 data for selected Raf Kinase Inhibitors shown in Table 1 above.

T1 sequence (P15056 whole entry V600E): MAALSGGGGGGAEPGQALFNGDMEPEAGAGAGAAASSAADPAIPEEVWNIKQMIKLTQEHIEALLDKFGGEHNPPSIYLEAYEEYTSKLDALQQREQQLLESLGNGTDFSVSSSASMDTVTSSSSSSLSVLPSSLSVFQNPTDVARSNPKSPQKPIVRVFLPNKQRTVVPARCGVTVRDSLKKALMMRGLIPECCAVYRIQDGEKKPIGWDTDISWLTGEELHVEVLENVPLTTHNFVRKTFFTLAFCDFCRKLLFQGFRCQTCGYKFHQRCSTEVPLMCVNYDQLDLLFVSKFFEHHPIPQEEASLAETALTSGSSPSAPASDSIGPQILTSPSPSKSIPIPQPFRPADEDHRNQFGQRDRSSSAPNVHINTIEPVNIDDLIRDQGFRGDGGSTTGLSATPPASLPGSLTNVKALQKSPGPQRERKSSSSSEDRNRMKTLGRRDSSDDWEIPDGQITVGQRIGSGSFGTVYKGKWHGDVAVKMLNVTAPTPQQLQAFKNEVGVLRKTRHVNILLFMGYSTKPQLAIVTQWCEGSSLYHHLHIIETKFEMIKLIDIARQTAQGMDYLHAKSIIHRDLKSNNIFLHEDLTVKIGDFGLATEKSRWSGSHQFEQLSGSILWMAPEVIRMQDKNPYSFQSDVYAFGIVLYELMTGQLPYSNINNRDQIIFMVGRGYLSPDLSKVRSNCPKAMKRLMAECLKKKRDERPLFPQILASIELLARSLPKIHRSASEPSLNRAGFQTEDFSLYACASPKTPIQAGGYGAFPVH

Row | IC50 | SMILES
1 | 0.0026 µM | COc1cc(-c2nc(C3=CCCCC3)[nH]c2-c2ccncc2)cnc1N [Compound 113, 5-(2-cyclohexenyl-5-(pyridin-4-yl)-1H-imidazol-4-yl)-3-methoxypyridin-2-amine]
2 | 0.099 µM | Cc1n[nH]c2ccc(-c3[nH]c(-c4ccccc4)nc3-c3ccncc3)cc12 [Compound 35, 3-methyl-5-(2-phenyl-4-(pyridin-4-yl)-1H-imidazol-5-yl)-1H-indazole]
3 | 0.0038 µM | COc1cc(-c2[nH]c(-c3ccc(F)cc3)nc2-c2ccncc2F)cnc1N [Compound 93, 5-(2-(4-fluorophenyl)-4-(3-fluoropyridin-4-yl)-1H-imidazol-5-yl)-3-methoxypyridin-2-amine]
4 | 0.0365 µM | COc1cc(-c2[nH]c(-c3ccc(F)cc3)nc2-c2cncs2)cnc1N [Example 11, 5-(2-(4-fluorophenyl)-5-(thiazol-5-yl)-1H-imidazol-4-yl)-3-methoxypyridin-2-amine]
5 | 0.0005 µM | COc1cc(-c2[nH]c(-c3ccc(F)cc3)nc2-c2ccnc(Nc3ccc(N4C[C@@H](C)O[C@@H](C)C4)nc3)n2)cnc1N [Compound 187, 4-(5-(6-amino-5-methoxypyridin-3-yl)-2-(4-fluorophenyl)-1H-imidazol-4-yl)-N-(6-((2S,6R)-2,6-dimethylmorpholino)-pyridin-3-yl)pyrimidin-2-amine]
6 | 0.0003 µM | COCC(=O)N[C@@H](C)CNc1nccc(-c2[nH]c(C(C)C)nc2-c2cnc(N)c(OC)c2)n1 [Compound 226, (S)-N-(1-(4-(4-(6-amino-5-methoxypyridin-3-yl)-2-isopropyl-1H-imidazol-5-yl)pyrimidin-2-ylamino)propan-2-yl)-2-methoxyacetamide]
7 | 0.0163 µM | COc1cc(-c2[nH]c(-c3ccc(F)cc3)nc2-c2ccnc(NC3CCCC3)n2)cnc1N [Compound 164, 4-(5-(6-amino-5-methoxypyridin-3-yl)-2-(4-fluorophenyl)-1H-imidazol-4-yl)-N-cyclopentylpyrimidin-2-amine]
8 | 0.775 µM | Fc1ccc(-c2nc(-c3ccncc3)c(-c3ccnc4[nH]ccc34)[nH]2)cc1 [Compound 150, 4-(2-(4-fluorophenyl)-4-(pyridin-4-yl)-1H-imidazol-5-yl)-1H-pyrrolo[2,3-b]pyridine]
9 | 0.0013 µM | COC(=O)c1cccc(-c2nc(-c3ccncc3)c(-c3cnc(N)c(OC)c3)[nH]2)c1 [Compound 101, methyl 3-(5-(6-amino-5-methoxypyridin-3-yl)-4-(pyridin-4-yl)-1H-imidazol-2-yl)benzoate]
10 | 0.0004 µM | CCc1nc(-c2cnc(N)c(OC)c2)c(-c2ccnc(Nc3ccnc(OC)c3)n2)[nH]1 [Compound 243, 4-(4-(6-amino-5-methoxypyridin-3-yl)-2-ethyl-1H-imidazol-5-yl)-N-(2-methoxypyridin-4-yl)pyrimidin-2-amine]
11 | 0.0008 µM | COCC(=O)NC[C@H](C)Nc1nccc(-c2nc(C(C)(C)C)[nH]c2-c2cnc(N)c(OC)c2)n1 [Compound 204, (S)-N-(2-(4-(5-(6-amino-5-methoxypyridin-3-yl)-2-tert-butyl-1H-imidazol-4-yl)pyrimidin-2-ylamino)propyl)-2-methoxyacetamide]
12 | 0.0004 µM | COC(=O)N[C@@H](C)CNc1nccc(-c2nc(C(C)(C)C)[nH]c2-c2cnc(N)c(C(C)=O)c2)n1 [Compound 235, (S)-methyl-1-(4-(5-(5-acetyl-6-aminopyridin-3-yl)-2-tert-butyl-1H-imidazol-4-yl)pyrimidin-2-ylamino)propan-2-ylcarbamate]
13 | 0.737 µM | COc1cc(-c2[nH]c(-c3ccc(F)cc3)nc2-c2cnc(N)c(OC)c2)ccn1 [Compound 112, 5-(2-(4-fluorophenyl)-5-(2-methoxypyridin-4-yl)-1H-imidazol-4-yl)-3-methoxypyridin-2-amine]
14 | 0.0158 µM | COc1cc(-c2[nH]c(C(C)(C)C)nc2-c2ccnc(N[C@@H](C)CNC(=O)[C@H](C)OC)n2)cnc1N [Compound 207, (S)-N-((S)-2-(4-(5-(6-amino-5-methoxypyridin-3-yl)-2-tert-butyl-1H-imidazol-4-yl)pyrimidin-2-ylamino)propyl)-2-methoxypropanamide]
15 | 0.038 µM | COc1cc(-c2[nH]c(-c3ccc(F)cc3)nc2-c2ccnc(N[C@@H]3CCN(C(C)=O)C3)n2)cnc1N [Compound 193, (R)-1-(3-(4-(5-(6-amino-5-methoxypyridin-3-yl)-2-(4-fluorophenyl)-1H-imidazol-4-yl)pyrimidin-2-ylamino)pyrrolidin-1-yl)ethanone]
16 | 0.0001 µM | CCCNc1nccc(-c2[nH]c(C(C)(C)C)nc2-c2cnc(N)c(OC)c2)n1 [Compound 212, 4-(4-(6-amino-5-methoxypyridin-3-yl)-2-tert-butyl-1H-imidazol-5-yl)-N-propylpyrimidin-2-amine]

Row | IC50 | SMILES
17 | 0.0001 µM | COc1nc(-c2nc(C(C)(C)C)[nH]c2-c2ccnc(NC[C@H](C)NC(=O)OCC(C)C)n2)cnc1N [Compound 239, (S)-isobutyl 1-(4-(4-(5-amino-6-methoxypyrazin-2-yl)-2-tert-butyl-1H-imidazol-5-yl)pyrimidin-2-ylamino)propan-2-ylcarbamate]
18 | 0.0004 µM | COc1cc(-c2[nH]c(-c3ccccc3)nc2-c2ccnc(NCCNS(=O)(=O)c3ccc(Cl)cc3)n2)cnc1N [Compound 70, N-(2-(4-(5-(6-amino-5-methoxypyridin-3-yl)-2-phenyl-1H-imidazol-4-yl)pyrimidin-2-ylamino)ethyl)-4-chlorobenzenesulfonamide]
19 | 0.089 µM | COc1nc(-c2sc(-c3ccccc3)nc2-c2ccncc2)cnc1N [Compound 77, 3-methoxy-5-(2-phenyl-4-(pyridin-4-yl)thiazol-5-yl)pyrazin-2-amine]
20 | 0.002 µM | COc1cc(-c2nc(-c3ccc(F)cc3)oc2-c2ccnc(NCC(C)C)n2)cnc1N [Compound 220, 4-(4-(6-amino-5-methoxypyridin-3-yl)-2-(4-fluorophenyl)oxazol-5-yl)-N-isobutylpyrimidin-2-amine]
21 | 0.0003 µM | COc1cc(Nc2nccc(-c3[nH]c(C(C)(C)C)nc3-c3cnc4[nH]cc(Cl)c4c3)n2)ccn1 [Compound 233, 4-(2-tert-butyl-4-(3-chloro-1H-pyrrolo[2,3-b]pyridin-5-yl)-1H-imidazol-5-yl)-N-(2-methoxypyridin-4-yl)pyrimidin-2-amine]
22 | 0.0003 µM | COc1cc(-c2nc(C(C)(C)C)[nH]c2-c2ccnc(Nc3cccc(OC(F)(F)F)c3)n2)cnc1N [Compound 190, 4-(4-(6-amino-5-methoxypyridin-3-yl)-2-tert-butyl-1H-imidazol-5-yl)-N-(3-(trifluoromethoxy)phenyl) pyrimidin-2-amine]
23 | 0.0019 µM | COc1cc(-c2sc(-c3ccccc3)nc2-c2ccncc2)cnc1N [Example 15, 3-methoxy-5-(2-phenyl-4-(pyridine-4-yl)thiazol-5-yl)pyridine-2-amine]
24 | 0.0002 µM | COc1cc(Nc2nccc(-c3[nH]c(C(C)C)nc3-c3cnc(N)c(OC)c3)n2)ccn1 [Compound 231, 4-(4-(6-amino-5-methoxypyridin-3-yl)-2-isopropyl-1H-imidazol-5-yl)-N-(2-methoxypyridin-4-yl)pyrimidin-2-amine]
25 | 0.013 µM | COc1cncc(-c2[nH]c(-c3ccccc3)nc2-c2ccncc2)c1 [Compound 36, 3-methoxy-5-(2-phenyl-4-(pyridin-4-yl)-1H-imidazol-5-yl)pyridine]
26 | 0.0028 µM | COc1cc(-c2[nH]c(-c3ccccc3C(F)(F)F)nc2-c2ccncc2)cnc1N [Compound 136, 3-methoxy-5-(4-(pyridin-4-yl)-2-(2-(trifluoromethyl)phenyl)-1H-imidazol-5-yl)pyridin-2-amine]
27 | 0.387 µM | Nc1ccc(-c2[nH]c(-c3ccccc3)nc2-c2ccncc2)c(F)n1 [Compound 37, 6-fluoro-5-(2-phenyl-4-(pyridin-4-yl)-1H-imidazol-5-yl)pyridin-2-amine]
28 | 0.058 µM | Nc1n[nH]c2cc(-c3[nH]c(-c4ccccc4)nc3-c3ccncc3)ccc12 [Compound 24, 6-(2-phenyl-4-(pyridin-4-yl)-1H-imidazol-5-yl)-1H-indazol-3-amine]
29 | 0.006 µM | COc1nc(-c2[nH]c(-c3ccccc3)nc2-c2ccncc2)cnc1N [Compound 39, 3-methoxy-5-(2-phenyl-4-(pyridin-4-yl)-1H-imidazol-5-yl)pyrazin-2-amine]
30 | 0.197 µM | COc1cc(-c2nc(-c3ccc(F)cc3)[nH]c2-c2ccnc(C#N)c2)cnc1N [Compound 173, 4-(4-(6-amino-5-methoxypyridin-3-yl)-2-(4-fluorophenyl)-1H-imidazol-5-yl)picolinonitrile]
31 | 0.0003 µM | COc1cc(-c2nc(-c3ccccc3)oc2-c2ccncc2)cnc1N [Compound 92, 3-methoxy-5-(2-phenyl-5-(pyridin-4-yl)oxazol-4-yl)pyridin-2-amine]
